# Source: patent US20130190514A1, “PHENYLALKYL N-HYDROXYUREAS FOR TREATING LEUKOTRIENE RELATED PATHOLOGIES” (TALLIKUT PHARMACEUTICALS, INC., priority 2010, published 2013)
# Key:
# [1] = tested on: leukotriene B4 (LTB4); assay: Ex vivo LTB4 in blood by ELISA, Phase 2 ACS study; set-up: species or system human; settings: trough drug levels
# Method: (§1) In this randomized, placebo-controlled study, 191 patients were randomized 3 weeks after an acute coronary syndrome (ACS) to receive 25, 50, or 100 mg N-[3-[5-[(4-fluorophenyl)methyl]-2-thienyl]-1-methyl-2-propynyl]-N-hydroxyurea or placebo qd for 12 weeks. Baseline assessments were performed at the start of treatment and these baseline results were compared with repeat assessments during various follow-up periods during the treatment study. A subset of 93 patients who had undergone a Multidetector (64 slice coronary) Computerized Tomography (MDCT) examination at baseline continued on study medication for a total of 24 weeks and underwent a repeat scan. Patients received a single daily oral dose of 25 mg, 50 mg, or 100 mg of N-[3-[5-[(4-fluorophenyl)methyl]-2-thienyl]-1-methyl-2-propynyl]-N-hydroxyurea or matching placebo by administering 2 capsules as prepared in Example 3 for 12 weeks or 24 weeks. Blood samples for measurement of ex vivo leukotriene B4 (LTB4) and high sensitivity C reactive protein (hsCRP), and urine samples for measurement of urinary leukotriene E4 (LTE4) levels were collected pre-dose on weeks 2, 6 and 12. Blood samples were assayed for ex vivo LTB4 by enzyme-linked immunosorbent assay, and for hsCRP by an immunoturbidimetric method. Urine samples were assayed for LTE4 using Liquid Chromatography with Tandem Mass Spectrometry (LC/MS/MS).
# [2] = tested on: leukotriene E4 (LTE4); assay: Urinary LTE4 by LC/MS/MS, Phase 2 ACS study; type: in vivo, human; settings: all doses (25, 50, 100 mg qd)
# Method: as §1
# [3] = tested on: high sensitivity C reactive protein (hsCRP); assay: hsCRP in blood by immunoturbidimetric method, Phase 2 ACS study; type: in vivo, human
# Method: as §1
# [4] = tested on: non-calcified plaque; assay: Coronary plaque by MDCT (64-slice CT), Phase 2 ACS study, 24-week substudy; type: in vivo, human; settings: all three doses, serial MDCT images at 24 weeks
# Method: In this randomized, placebo-controlled study, 191 patients were randomized 3 weeks after an acute coronary syndrome (ACS) to receive 25, 50, or 100 mg N-[3-[5-[(4-fluorophenyl)methyl]-2-thienyl]-1-methyl-2-propynyl]-N-hydroxyurea or placebo qd for 12 weeks. Baseline assessments were performed at the start of treatment and these baseline results were compared with repeat assessments during various follow-up periods during the treatment study. A subset of 93 patients who had undergone a Multidetector (64 slice coronary) Computerized Tomography (MDCT) examination at baseline continued on study medication for a total of 24 weeks and underwent a repeat scan. For those patients who continued on study medication for a total of 24 weeks, contrast-enhanced CT examination was performed at baseline and after 24 weeks of treatment with a 64-slice scanner (GE LightSpeed VCT; GE Healthcare, USA). Target plaque lesions were defined prospectively as non-calcified plaque with measurable low-density components of <60 HU situated in the proximal or middle portion of either the left main, left anterior ascending, left circumflex or right coronary artery causing at least 20% luminal stenosis. Prior to analysis of results, patients had their MDCT examinations evaluated twice by the same reviewer and also by a second reviewer for evaluation of intraobserver and interobserver variability of measurements.
# [5] = tested on: inflammatory genes, including IL-6, IL 8, IL-10, MMP9, I-kappa-B, osteopontin; assay: Inflammatory gene expression in carotid plaques (TaqMan), Phase 2 CEA study; type: in vivo, human; settings: rupture-prone plaque subtypes, 100 mg qd oral, 12 weeks
# Method: In this randomized, double blind, placebo-controlled study, 50 patients with significant carotid artery stenosis (60-90%) were treated once daily for 12 weeks with orally administered 100 mg N-[3-[5-[(4-fluorophenyl)methyl]-2-thienyl]-1-methyl-2-propynyl]-N-hydroxyurea or placebo prior to undergoing CEA, at which time endarterectomy tissue (plaque) was collected and stored for subsequent tissue analysis. Baseline assessments are performed at the start of treatment and these baseline results were compared with repeat assessments during various follow-up periods of treatment. The treatment was conducted for twelve weeks at which time these baseline assessments were performed and compared.
# At the end of 12 weeks treatment with 100 mg of N-[3-[5-[(4-fluorophenyl)methyl]-2-thienyl]-1-methyl-2-propynyl]-N-hydroxyurea, patients underwent CEA, at which time endarterectomy tissue (plaque) was collected, fixed in 10% formalin and paraffin blocks, and stored for subsequent tissue analysis. […] A portion of each of the plaques was also analyzed for inflammatory gene expression after isolation of total RNA and reverse transcription using a TaqMan® High Capacity cDNA assay.
# LTB4, LTE4 and hsCRP biomarker data were assessed using change from baseline comparisons and an ANCOVA was used to compare the treatment groups where the covariate was the baseline value of the outcome measure. […]
smiles,measurement,setting,value
"CC(C#Cc1ccc(Cc2ccc(F)cc2)s1)N(O)C(N)=O (centres unmarked) [VIA-2291, N-[3-[5-[(4-fluorophenyl)methyl]-2-thienyl]-1-methyl-2-propynyl]-N-hydroxyurea]",inhibition of ex vivo LTB4,"[1]; 100-mg group, in >90% of patients",approximately 80%
same,ex vivo leukotriene LTB4,"[1]; all doses (25, 50, 100 mg qd), P<0.0001, dose-dependent",significantly reduced
same,urinary leukotriene LTE4,[2],significantly reduced
same,hsCRP within group between 12 and 24 weeks,"[3]; 100 mg group, P<0.01",significant reduction
same,decrease in hsCRP compared with placebo,"[3]; 100-mg group at 24 weeks, P=0.0002",67%
same,new plaque lesions compared with placebo,[4],reduced
same,non-calcified plaque volume compared with placebo,[4],reduced
same,"expression of inflammatory genes, including IL-6, IL 8, IL-10, MMP9, I-kappa-B, osteopontin",[5],reduction in expression
